We go through 53 compounds from ChEMBL document CHEMBL5724581, “Toxicity screen in purified B cell assay results for EUbOPEN Chemogenomics Library” (2024).

In this series the test system is B cell. Description: Cytotoxicity screening of chemical probes in isolated B cell assay. Data is normalized to DMSO control, the cell viability average of replicates are reported. Reduction of ATP level more than 20% indicate compromised cell health status. The note with it: human, 1 µM.

“And” between values parts separate entries of the source, which are not always exact repeats. Equal entries are not always repeated. Bridge positions count the residues as written; N and C are the ends. Square brackets hold non-standard residues; d marks the D form. Peptide text beside a SMILES is read from it. * marks the point of attachment. dPhe(4-NHCONH2) = NC(=O)Nc1ccc(C[C@@H](N)C(=O)O)cc1; Dihydroorotyl(S) = O=C1C[C@@H](C(=O)*)NC(=O)N1; dPhe(4-Cl) = N[C@H](Cc1ccc(Cl)cc1)C(=O)O; Phe(4-NH2) = Nc1ccc(C[C@H](N)C(=O)O)cc1; d2Nal = N[C@H](Cc1ccc2ccccc2c1)C(=O)O; Lys(iPr) = CC(C)NCCCC[C@H](N)C(=O)O; d3Pal = N[C@H](Cc1cccnc1)C(=O)O; Orn = NCCC[C@H](N)C(=O)O; Mpa = O=C(O)CCS

Consider `CCOc1nc2cccc(C(=O)O)c2n1Cc1ccc(-c2ccccc2-c2nnn[nH]2)cc1`, for which the “Cell Viability” value amounted to 98.0011%.
Next, `CCCCC(=O)N(Cc1ccc(-c2ccccc2-c2nnn[nH]2)cc1)[C@H](C(=O)O)C(C)C`: 98.0011%.
In the case of `CC1(C)[C@H]2C[C@H](C/C=C\CCCC(=O)O)[C@@H](NC(=O)c3csc4ccc(O)cc34)[C@@H]1C2`, the “Cell Viability” value is on record as 98.0011%.
Take `COCCn1c(C)c(C)s/c1=N\C(=O)C1C(C)(C)C1(C)C`: the “Cell Viability” value is given as 98.0011%.
Take `CC#C[C@@H](CC(=O)O)c1ccc(OCc2cccc(-c3ccc(C(F)(F)F)cc3)c2)cc1`: the “Cell Viability” value was 98.0011%.
Next, `Cc1cc(OCCCS(C)(=O)=O)cc(C)c1-c1cccc(COc2ccc3c(c2)OC[C@H]3CC(=O)O)c1`: 98.0011%; `COc1ccncc1C(=O)NC(=O)Nc1ccc(-c2ccccc2)c(C(F)(F)F)c1`: 98.0011%.
On to `COc1cccc2c1c(NS(=O)(=O)c1ccc(Cl)s1)nn2Cc1cccc(CNC(=O)C(C)(C)O)c1`, for which the “Cell Viability” value was 103.681%.
Take `O=C(O)c1n[nH]c2c1C[C@H]1C[C@@H]21`: the “Cell Viability” value is recorded as 98.0011%.
Next, `CCc1nc2c(C)cc(C)nc2[nH]1`: 98.0011%; `c1ccc(NCc2ccc(CNc3ccccn3)cc2)nc1`: 99.8082%.
Next, `Cc1nnc(C(=O)NC(C)(C)c2nc(C(=O)NCc3ccc(F)cc3)c(O)c(=O)n2C)o1`: 103.493%; `CSc1ccc(C(=O)N[C@@H]2CCCC[C@@H]2NC(=O)CNC(=O)c2cc(C(F)(F)F)ccc2NC(=O)NC(C)C)cc1`: 102.032%.
Next, `CSc1cc2c(cc1C(F)(F)F)N(C(=O)Nc1cccnc1)CC2`: 98.0011%; `CC[C@H]1OC(=O)[C@H](C)[C@@H](O[C@H]2C[C@@](C)(OC)[C@@H](O)[C@H](C)O2)[C@H](C)[C@@H](O[C@@H]2O[C@H](C)C[C@H](N(C)C)[C@H]2O)[C@@]2(C)CC(C)=C(O2)[C@H](C)[C@@H](O)[C@]1(C)O`: 98.0011%.
In the case of `Cc1cc(Cn2cnc3c2C[C@@H](C(=O)O)N(C(=O)C(c2ccccc2)c2ccccc2)C3)ccc1N(C)C`, the “Cell Viability” value is listed as 98.0011%.
The result for `COc1ccc(C(=O)N2CCN(C(=O)/C=C/c3ccc(Br)cc3)CC2)cc1` reads 98.0011%; that for `Cc1nc[nH]c1CCN.Cl`, 98.0011%.
The result for `N#Cc1c(O)nc(SCc2cccc(F)c2F)nc1C1CC1` reads 104.007%.
With `Cc1ccc(Cn2nc(C(=O)N[C@@H]3C(C)(C)[C@@H]4CC[C@@]3(C)C4)cc2-c2ccc(Cl)c(C)c2)cc1`, the “Cell Viability” value was determined as 98.0011%.
In the case of `N#Cc1ccc(NC(=O)Nc2ccccc2Br)c2nn[nH]c12`, the “Cell Viability” value came out at 104.304%.
The result for `NS(=O)(=O)c1c(Cl)ccc(NC(=O)Nc2cccc(Cl)c2Cl)c1O` reads 102.927%; that for `COc1cc(C(=O)N(CCCc2ccccc2)Cc2ccc(CC(=O)O)cc2)cc(OC)c1C`, 98.0011%.
Regarding `C[C@H](CO)Nc1nc(SCc2cccc(Cl)c2F)nc2[nH]c(=O)sc12`, the “Cell Viability” value is listed as 95.8941%.
The result for `O=C(NCc1ccc(F)cc1)N1CCN2C(=O)OC(c3ccccc3)(c3ccccc3)C2C1` (stereo not drawn) reads 98.0011%; that for `Cl.O=c1c2cccn2c2ccccc2n1CCCN1CCC(c2ccc(Cl)cc2)CC1`, 98.0011% and 103.839%.
As for `NC(=O)c1ccc(CNC(=O)NC[C@H]2CN(Cc3ccc(Cl)c(Cl)c3)CCO2)cc1`, the “Cell Viability” value came out at 98.0011%.
Next, `Nc1nc2c(c(N3CCNCC3)n1)CCC1=C2[C@@H]2CCCC[C@@H]2O1`: 100.079%; `CCCn1c(=O)c2[nH]c(C3CCCC3)nc2n(CCC)c1=O` [1,3-DIPROPYL-8-CYCLOPENTYLXANTHINE [DPCPX]]: 98.0011%; `Cc1[nH]cnc1CN1CCc2c(c3ccccc3n2C)C1=O` [ALOSETRON]: 98.0011%.
With `COC(c1ccccc1)(c1ccccc1)[C@H](Oc1nc(C)cc(C)n1)C(=O)O` [AMBRISENTAN], the “Cell Viability” value was 98.0011%.
Consider `C[C@@H](O[C@H]1OCCN(Cc2n[nH]c(=O)[nH]2)[C@H]1c1ccc(F)cc1)c1cc(C(F)(F)F)cc(C(F)(F)F)c1` [APREPITANT], for which the “Cell Viability” value stood at 98.0011%.
Next, `CCOc1ccc(C[C@H]2NC(=O)CCSSC[C@@H](C(=O)N3CCC[C@H]3C(=O)N[C@@H](CCCN)C(=O)NCC(N)=O)NC(=O)[C@H](CC(N)=O)NC(=O)[C@H]([C@@H](C)O)NC(=O)[C@H]([C@@H](C)CC)NC2=O)cc1` [ATOSIBAN] ([Mpa][dY](Et)ITNCP[Orn]G-NH2; disulfide 1-6): 98.0011%.
The result for `CC(C)C[C@H](CO)Nc1nc(S[C@@H](C)c2ccccc2)nc2nc(N)sc12` [AZD-8797] reads 97.9584%; that for `CC(C)C[C@@H]1NC(=O)[C@@H](C(C)C)NC(=O)[C@@H]2CCCN2C(=O)[C@@H](CC(=O)O)NC(=O)[C@@H](Cc2c[nH]c3ccccc23)NC1=O` [BQ-123] (cyclo(L[dW][dD]P[dV])), 98.0011%.
Next, `C[C@@H]1CN(Cc2ccc(F)cc2)CCN1C(=O)COc1ccc(Cl)cc1NC(N)=O` [BX 471 FREE BASE]: 98.0011% and 103.598%.
In the case of `Cc1c(F)cccc1NC(=O)Nc1ccc(Cl)c(S(=O)(=O)[C@H]2CCCNC2)c1O` [DANIRIXIN], the “Cell Viability” value was determined as 101.889%.
Regarding `CC(=O)N[C@H](Cc1ccc2ccccc2c1)C(=O)N[C@H](Cc1ccc(Cl)cc1)C(=O)N[C@H](Cc1cccnc1)C(=O)N[C@@H](CO)C(=O)N[C@@H](Cc1ccc(NC(=O)[C@@H]2CC(=O)NC(=O)N2)cc1)C(=O)N[C@H](Cc1ccc(NC(N)=O)cc1)C(=O)N[C@@H](CC(C)C)C(=O)N[C@@H](CCCCNC(C)C)C(=O)N1CCC[C@H]1C(=O)N[C@H](C)C(N)=O` [DEGARELIX] (Ac-[d2Nal][dPhe(4-Cl)][d3Pal]S[Phe(4-NH2)](Dihydroorotyl(S))[dPhe(4-NHCONH2)]L[Lys(iPr)]P[dA]-NH2), the “Cell Viability” value was determined as 98.0011%.
Next, `O=C(O)Cc1ccccc1Nc1c(Cl)cccc1Cl` [DICLOFENAC]: 98.0011% and 91.1433%; `C[C@]12N[C@H](Cc3ccccc31)c1ccccc12` [DIZOCILPINE]: 98.0011%; `O=S(=O)(c1ccccc1)c1cnc2c(N3CCNCC3)cccc2c1` [INTEPIRDINE]: 98.0011%.
As to `c1cc(OCCCN2CCCCC2)ccc1CN1CCCCC1` [JNJ-5207852], the “Cell Viability” value is listed as 98.0011%.
`CCNC1(C(N)=O)CCN(c2ncnc3c2nc(-c2ccccc2Cl)n3-c2ccc(Cl)cc2)CC1` [OTENABANT]: the “Cell Viability” value is reported as 98.0011%.
On to `O=C(NCC(=O)N1CC[C@H](N[C@H]2CC[C@@](O)(c3ccc(-c4ncccn4)cn3)CC2)C1)c1cccc(C(F)(F)F)c1` [PF-4136309], for which the “Cell Viability” value was 99.5458%.
On to `c1cc(CN2CCCNCCNCCCNCC2)ccc1CN1CCCNCCNCCCNCC1` [PLERIXAFOR], for which the “Cell Viability” value was 104.498%.
`CC(C)Cc1ccc([C@@H](C)C(=O)NS(C)(=O)=O)cc1` [REPARIXIN]: the “Cell Viability” value is 98.0011% and 100.432%.
Next, `Cc1c(C(=O)NN2CCCCC2)nn(-c2ccc(Cl)cc2Cl)c1-c1ccc(Cl)cc1` [RIMONABANT]: 98.0011%; `C[C@@H](OC[C@@]1(c2ccccc2)CC[C@]2(CCC(=O)N2)CN1)c1cc(C(F)(F)F)cc(C(F)(F)F)c1` [ROLAPITANT]: 98.0011%; `CC(C)N(CCCCOCC(=O)NS(C)(=O)=O)c1cnc(-c2ccccc2)c(-c2ccccc2)n1` [SELEXIPAG]: 98.0011%.
Next, `Cc1ccc2c(c1CCC(=O)O)CC[C@@H](NS(=O)(=O)c1ccc(Cl)cc1)C2` [TERUTROBAN]: 98.0011%; `Cl.Clc1ccc2nsnc2c1NC1=NCCN1` [TIZANIDINE HYDROCHLORIDE]: 98.0011%.
In the case of `Cc1ccc(/C(=C\CN2CCCC2)c2ccccn2)cc1` [TRIPROLIDINE], the “Cell Viability” value was found to be 98.0011%.
Next, `COC[C@@H](c1ccc(C(F)(F)F)cc1)N1CCN(C2(C)CCN(C(=O)c3c(C)ncnc3C)CC2)C[C@@H]1C.O=C(O)/C=C\C(=O)O` [VICRIVIROC MALEATE]: 101.876%.
